Laboratory results taken from patent US20220296627A1, “Cytidine Derivatives and Methods of Forming Cytidine Derivatives” (Aenorasis Commercial Company of Pharmaceutical and Medical …, priority 2019, published 2022).
pIC50: −log10 of the molar value.

Experiments:
Type in all cases: cell-based
[1] = system: A549/WT wild type human lung adenocarcinoma cell line; test: Cell growth assay (SRB) in A549/WT; settings: for Ratio of IC50 in the presence of dipyridamole / IC50 in the absence of dipyridamole / Ratio of IC50 in the presence of, compared to in the absence of, dipyridamole: A549/WT; for Ratio of IC50 in the presence of dipyridamole / IC50 in the absence of dipyridamole: 4-N-acyl and 4-N-phosphoryl derivatives (Table 5); for pIC50: Homo sapiens, A549, A549/WT; for Ratio of IC50 in the presence of, compared to in the absence of, dipyridamole: acetylated 4-N-acyl derivatives (Table 7)
Protocol: (§1) Biological activities of the Gemcitabine derivative (which may be referred to as analogues) described above were evaluated with two assays: • 1. Cell growth assay using the SRB assay in cell lines A549/WT, SW1573/WT, PANC-01 and BXPC-3. • 2. MTT assay in human bladder cancer cell line T-24
(§2) The following cell lines were tested: • A549/WT —wild type human lung adenocarcinoma cell line (1) • SW1573/WT —wild type non-small lung human cell line (2), • PANC-01—human pancreatic cancer cell line (3) • BXPC-3 -epithelial human pancreatic adenocarcinoma cells (4).
(§3) Dipyridamole inhibits adenosine uptake by erythrocytes platelets and endothelial cells in vitro and in vivo. Thus, the present inventors recruited dipyridamole as an inhibitor of the nucleoside transporters of the tumour cells to observe the behaviour of the presently described Gemcitabine derivatives.
(§4) From the IC50 of each compound in the presence of dipyridamole, by dividing it with the IC50 of each compound in the absence of dipyridamole, the present inventors calculated a ratio that compared the efficacy of the analogous presence of dipyridamole.
(§5) Ratio=IC50 in the presence of dipyridamole/IC50 in the absence of dipyridamole • FIG. 10. Ratio of IC50 of 4-N-acyl and 4-N-phosphoryl derivatives in the presence of, compared to in the absence of, dipyridamole, in four cell lines

[2] = system: BXPC-3 epithelial human pancreatic adenocarcinoma cells; test: Cell growth assay (SRB) in BXPC-3; settings: for Ratio of IC50 in the presence of dipyridamole / IC50 in the absence of dipyridamole / Ratio of IC50 in the presence of, compared to in the absence of, dipyridamole: BXPC-3; for Ratio of IC50 in the presence of dipyridamole / IC50 in the absence of dipyridamole: 4-N-acyl and 4-N-phosphoryl derivatives (Table 5); for pIC50: Homo sapiens, BXPC-3, BXPC-3; for Ratio of IC50 in the presence of, compared to in the absence of, dipyridamole: acetylated 4-N-acyl derivatives (Table 7)
Protocol: as §1, §2, §3, §4, §5

[3] = system: PANC-01 human pancreatic cancer cell line; test: Cell growth assay (SRB) in PANC-01; settings: for Ratio of IC50 in the presence of dipyridamole / IC50 in the absence of dipyridamole: 4-N-acyl and 4-N-phosphoryl derivatives (Table 5); for pIC50: Homo sapiens, Pancreatic cancer cell; for Ratio of IC50 in the presence of, compared to in the absence of, dipyridamole: acetylated 4-N-acyl derivatives (Table 7)
Protocol: as §1, §2, §3, §4, §5

[4] = system: SW1573/WT wild type non-small lung human cell line; test: Cell growth assay (SRB) in SW1573/WT; settings: for pIC50: Homo sapiens, SW1573, SW 1573/WT; for Ratio of IC50 in the presence of dipyridamole / IC50 in the absence of dipyridamole / Ratio of IC50 in the presence of, compared to in the absence of, dipyridamole: SW 1573/WT; for Ratio of IC50 in the presence of dipyridamole / IC50 in the absence of dipyridamole: 4-N-acyl and 4-N-phosphoryl derivatives (Table 5); for Ratio of IC50 in the presence of, compared to in the absence of, dipyridamole: acetylated 4-N-acyl derivatives (Table 7)
Protocol: as §1, §2, §3, §4, §5

[5] = 4-N-acyl and 4-N-phosphoryl derivatives (Table 4)
[6] = acetylated 4-N-acyl derivatives (Table 6)

Row | Compound | Ratio of IC50 in the presence of dipyridamole / IC50 in the absence of dipyridamole [1] | pIC50 [1, 5] | Ratio of IC50 in the presence of dipyridamole / IC50 in the absence of dipyridamole [2] | pIC50 [2, 5] | Ratio of IC50 in the presence of dipyridamole / IC50 in the absence of dipyridamole [3] | pIC50 [3, 5] | pIC50 [4, 5] | Ratio of IC50 in the presence of dipyridamole / IC50 in the absence of dipyridamole [4] | Ratio of IC50 in the presence of, compared to in the absence of, dipyridamole [1] | pIC50 [1, 6] | Ratio of IC50 in the presence of, compared to in the absence of, dipyridamole [2] | pIC50 [2, 6] | pIC50 [3, 6] | Ratio of IC50 in the presence of, compared to in the absence of, dipyridamole [3] | pIC50 [4, 6] | Ratio of IC50 in the presence of, compared to in the absence of, dipyridamole [4]
1 | CCCCOC(=O)Nc1ccn(C2OC(CO)C(O)C2(F)F)c(=O)n1 (stereo not shown) [Derivative 2] | 3.4 | 6.15 | 3.7 | 6.47 | 2.4 | 5.61 | 6.34 | 8 | – | – | – | – | – | – | – | –
2 | O=C(Nc1ccn(C2OC(CO)C(O)C2(F)F)c(=O)n1)OCCCl (stereo not shown) [Derivative 3A] | 10.5 | 6.02 | 27 | 6.30 | 0.6 | 5.52 | 6.21 | 40.9 | – | – | – | – | – | – | – | –
3 | O=C1OCCN1c1ccn(C2OC(CO)C(O)C2(F)F)c(=O)n1 (stereo not shown) [Derivative 3B] | 18.1 | 6.80 | 24 | 7.00 | 23 | 6.42 | 7.00 | 25 | – | – | – | – | – | – | – | –
4 | C#CCOC(=O)Nc1ccn(C2OC(CO)C(O)C2(F)F)c(=O)n1 (stereo not shown) [Derivative 5] | 11.1 | 6.35 | 23 | 6.62 | 2.7 | 5.73 | 6.42 | 13 | – | – | – | – | – | – | – | –
5 | CC(COC(=O)Nc1ccn(C2OC(CO)C(O)C2(F)F)c(=O)n1)c1ccccc1[N+](=O)[O-] (stereo not shown) [Derivative 6] | 11 | 6.30 | 13.1 | 6.47 | 4 | 5.80 | 6.37 | 11 | – | – | – | – | – | – | – | –
6 | CC(C)COC(=O)Nc1ccn(C2OC(CO)C(O)C2(F)F)c(=O)n1 (stereo not shown) [Derivative 8] | 10.4 | 6.62 | 25 | 6.82 | 4.2 | 6.32 | 6.77 | 14 | – | – | – | – | – | – | – | –
7 | CCOC(=O)Nc1ccn(C2OC(COC(C)=O)C(OC(C)=O)C2(F)F)c(=O)n1 (stereo not shown) [Derivative 13] | – | – | – | – | – | – | – | – | 2.85 | 5.20 | 2.8 | 5.30 | 4.60 | 1 | 5.17 | 3.6
8 | CC(=O)OCC1OC(n2ccc(NC(=O)OCCCl)nc2=O)C(F)(F)C1OC(C)=O (stereo not shown) [Derivative 15] | – | – | – | – | – | – | – | – | 3.7 | 5.43 | 3.3 | 5.52 | 5.00 | 2.5 | 5.40 | 4.5
9 | CC(=O)OCC1OC(n2ccc(N3CCOC3=O)nc2=O)C(F)(F)C1OC(C)=O (stereo not shown) [Derivative 16] | – | – | – | – | – | – | – | – | 2.7 | 5.21 | 3.4 | 5.30 | 4.60 | 1 | 5.38 | 3.8
10 | C#CCOC(=O)Nc1ccn(C2OC(COC(C)=O)C(OC(C)=O)C2(F)F)c(=O)n1 (stereo not shown) [Derivative 18] | – | – | – | – | – | – | – | – | 6.5 | 6.05 | 10.8 | 6.14 | 5.18 | 3.1 | 6.21 | 12.7
11 | CC(=O)OCC1OC(n2ccc(NC(=O)OCC(C)c3ccccc3[N+](=O)[O-])nc2=O)C(F)(F)C1OC(C)=O (stereo not shown) [Derivative 19] | – | – | – | – | – | – | – | – | 15 | 5.80 | 8 | 6.11 | 5.10 | 1.1 | 5.94 | 3.5
12 | COc1cc(COC(=O)Nc2ccn(C3OC(COC(C)=O)C(OC(C)=O)C3(F)F)c(=O)n2)c([N+](=O)[O-])cc1OC (stereo not shown) [Derivative 20] | – | – | – | – | – | – | – | – | 7.5 | 6.21 | 4.6 | 6.22 | 5.41 | 4 | 6.24 | 17.54
13 | CC(=O)OCC1OC(n2ccc(NC(=O)OCC(C)C)nc2=O)C(F)(F)C1OC(C)=O (stereo not shown) [Derivative 21] | – | – | – | – | – | – | – | – | 2.6 | 5.10 | 2.8 | 5.49 | 4.60 | 1 | 5.37 | 3.7
14 | CC(=O)Nc1ccn(C2OC(COC(C)=O)C(OC(C)=O)C2(F)F)c(=O)n1 (stereo not shown) [Derivative 22] | – | – | – | – | – | – | – | – | 4 | 6.40 | 4.1 | 6.35 | 5.43 | 1.6 | 6.59 | 13.4
